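The concentration for 50% growth inhibition is given as GI50. TGI marks complete inhibition of growth.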
How the values were obtained:
Assay in all cases: inhibition of tumour cell growth, NCI panel, 384-well format
786-0 renal = system: 786-0 renal
A498 renal = system: A498 renal
A549 NSCLC = system: A549 NSCLC
BT-549 breast = system: BT-549 breast
CCRF-CEM leukemia = system: CCRF-CEM leukemia
COLO 205 colon = system: COLO 205 colon
EKVX NSCLC = system: EKVX NSCLC
HCC-2998 colon = system: HCC-2998 colon
HCT-116 colon = system: HCT-116 colon
HCT-15 colon = system: HCT-15 colon
HL-60(TB) leukemia = system: HL-60(TB) leukemia
HOP-62 NSCLC = system: HOP-62 NSCLC
HS 578T breast = system: HS 578T breast
HT29 colon = system: HT29 colon
IGROV1 ovarian = system: IGROV1 ovarian
K-562 leukemia = system: K-562 leukemia
KM12 colon = system: KM12 colon
LOX IMVI melanoma = system: LOX IMVI melanoma
M14 melanoma = system: M14 melanoma
MALME-3M melanoma = system: MALME-3M melanoma
MCF7 breast = system: MCF7 breast
MDA-MB-231 breast = system: MDA-MB-231 breast
MDA-MB-435 melanoma = system: MDA-MB-435 melanoma
MDA-MB-468 breast = system: MDA-MB-468 breast
MOLT-4 leukemia = system: MOLT-4 leukemia
NCI-H23 lung = system: NCI-H23 lung
NCI-H322M lung = system: NCI-H322M lung
NCI-H460 NSCLC = system: NCI-H460 NSCLC
NCI/ADR-RES ovarian = system: NCI/ADR-RES ovarian
OVCAR-3 ovarian = system: OVCAR-3 ovarian
OVCAR-4 ovarian = system: OVCAR-4 ovarian
OVCAR-8 ovarian = system: OVCAR-8 ovarian
PC-3 prostate = system: PC-3 prostate
RPMI-8226 leukemia = system: RPMI-8226 leukemia
RXF 393 renal = system: RXF 393 renal
SF-268 CNS = system: SF-268 CNS
SF-539 CNS = system: SF-539 CNS
SK-MEL-2 melanoma = system: SK-MEL-2 melanoma
SK-MEL-28 melanoma = system: SK-MEL-28 melanoma
SK-MEL-5 melanoma = system: SK-MEL-5 melanoma
SK-OV-3 ovarian = system: SK-OV-3 ovarian
SN12C renal = system: SN12C renal
SNB-19 CNS = system: SNB-19 CNS
SNB-75 CNS = system: SNB-75 CNS
SR leukemia = system: SR leukemia
TK-10 renal = system: TK-10 renal
U251 glioblastoma = system: U251 glioblastoma
UACC-257 melanoma = system: UACC-257 melanoma
UACC-62 melanoma = system: UACC-62 melanoma

Compound: CN(c1ncccc1CNc1nc(Nc2ccc3c(c2)CC(=O)N3)ncc1C(F)(F)F)S(C)(=O)=O
- GI50 ([…]-0 renal): 2440 nM
- TGI (786-0 renal): 7780 nM
- GI50 (A498 renal): 2910 nM
- TGI (A498 renal): > 100000 nM
- GI50 (A549 NSCLC): 3150 nM
- TGI (A549 NSCLC): > 100000 nM
- GI50 (BT-549 breast): 1740 nM
- TGI (BT-549 breast): 3880 nM
- GI50 (CCRF-CEM leukemia): 1710 nM
- TGI (CCRF-CEM leukemia): 3330 nM
- GI50 (COLO 205 colon): 1460 nM
- TGI (COLO 205 colon): 4280 nM
- GI50 (EKVX NSCLC): 1490 nM
- TGI (EKVX NSCLC): 4170 nM
- GI50 (HCC-2998 colon): 1190 nM
- TGI (HCC-2998 colon): 3210 nM
- GI50 (HCT-116 colon): 1890 nM
- TGI (HCT-116 colon): > 100000 nM
- GI50 (HCT-15 colon): 3810 nM
- TGI (HCT-15 colon): 17000 nM
- GI50 (HL-60(TB) leukemia): 1700 nM
- TGI (HL-60(TB) leukemia): 3090 nM
- GI50 (HOP-62 NSCLC): 1970 nM
- TGI (HOP-62 NSCLC): 7830 nM
- GI50 (HS 578T breast): 1620 nM
- TGI (HS 578T breast): 3700 nM
- GI50 (HT29 colon): 3740 nM
- TGI (HT29 colon): > 100000 nM
- GI50 (IGROV1 ovarian): 2420 nM
- TGI (IGROV1 ovarian): > 100000 nM
- GI50 (K-562 leukemia): 2830 nM
- TGI (K-562 leukemia): > 100000 nM
- GI50 (KM12 colon): 218 nM
- TGI (KM12 colon): 1720 nM
- GI50 (LOX IMVI melanoma): 1540 nM
- TGI (LOX IMVI melanoma): 3580 nM
- GI50 (M14 melanoma): 1750 nM
- TGI (M14 melanoma): 4240 nM
- GI50 (MALME-3M melanoma): 2200 nM
- TGI (MALME-3M melanoma): 4940 nM
- GI50 (MCF7 breast): 1020 nM
- TGI (MCF7 breast): 8250 nM
- GI50 (MDA-MB-231 breast): 2550 nM
- TGI (MDA-MB-231 breast): > 100000 nM
- GI50 (MDA-MB-435 melanoma): 2290 nM
- TGI (MDA-MB-435 melanoma): 7700 nM
- GI50 (MDA-MB-468 breast): 1850 nM
- TGI (MDA-MB-468 breast): 3380 nM
- GI50 (MOLT-4 leukemia): 431 nM
- TGI (MOLT-4 leukemia): 1300 nM
- GI50 (NCI-H23 lung): 1790 nM
- TGI (NCI-H23 lung): 3340 nM
- GI50 (NCI-H322M lung): 2010 nM
- TGI (NCI-H322M lung): 4450 nM
- GI50 (NCI-H460 NSCLC): 1610 nM
- TGI (NCI-H460 NSCLC): 3290 nM
- GI50 (NCI/ADR-RES ovarian): 26000 nM
- TGI (NCI/ADR-RES ovarian): 95600 nM
- GI50 (OVCAR-3 ovarian): 2000 nM
- TGI (OVCAR-3 ovarian): 4740 nM
- GI50 (OVCAR-4 ovarian): 2480 nM
- TGI (OVCAR-4 ovarian): 8640 nM
- GI50 (OVCAR-8 ovarian): 3310 nM
- TGI (OVCAR-8 ovarian): > 100000 nM
- GI50 (PC-3 prostate): 2510 nM
- TGI (PC-3 prostate): > 100000 nM
- GI50 (RPMI-8226 leukemia): 1660 nM
- TGI (RPMI-8226 leukemia): 3030 nM
- GI50 (RXF 393 renal): 1200 nM
- TGI (RXF 393 renal): 2690 nM
- GI50 (SF-268 CNS): 1820 nM
- TGI (SF-268 CNS): 3990 nM
- GI50 (SF-539 CNS): 1860 nM
- TGI (SF-539 CNS): 3700 nM
- GI50 (SK-MEL-2 melanoma): 1850 nM
- TGI (SK-MEL-2 melanoma): 3580 nM
- GI50 (SK-MEL-28 melanoma): 1850 nM
- TGI (SK-MEL-28 melanoma): 4200 nM
- GI50 (SK-MEL-5 melanoma): 1630 nM
- TGI (SK-MEL-5 melanoma): 3110 nM
- GI50 (SK-OV-3 ovarian): 3100 nM
- TGI (SK-OV-3 ovarian): > 100000 nM
- GI50 (SN12C renal): 2400 nM
- TGI (SN12C renal): 5720 nM
- GI50 (SNB-19 CNS): 3390 nM
- TGI (SNB-19 CNS): > 100000 nM
- GI50 (SNB-75 CNS): 1550 nM
- TGI (SNB-75 CNS): 3600 nM
- GI50 (SR leukemia): 501 nM
- TGI (SR leukemia): 1670 nM
- GI50 (TK-10 renal): 2790 nM
- TGI (TK-10 renal): > 100000 nM
- GI50 (U251 glioblastoma): 2880 nM
- TGI (U251 glioblastoma): > 100000 nM
- GI50 (UACC-257 melanoma): 2010 nM
- TGI (UACC-257 melanoma): 4340 nM
- GI50 (UACC-62 melanoma): 1390 nM
- TGI (UACC-62 melanoma): 2860 nM

Reference: PubChem BioAssay (NCI)
